Laboratory results published in patent US9023789B2, “Amylin analogs and pharmaceutical compositions thereof” (Novo Nordisk A/S, priority 2012, dated 2015).
Numbered stars: 1 amine (or outer) side, 2 acyl side, 3 side chain; on linkers, the order of the positions; unused ones are H or OH. Bridge positions count the residues as written; N and C are the ends. Side chains are listed from the residue outwards. Peptide text beside a SMILES is read from it. * marks the point of attachment. C20 diacid = O=C(O)CCCCCCCCCCCCCCCCCCC(=O)*; γGlu = O=C(O)[C@H](CCC(=O)[*:2])N[*:1]; AEEA = NCCOCCOCC(=O)O

Experiments:
[1] = ASSAY (III) ThT fibrillation assay for physical stability; type: physicochemical
Procedure, shortened: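 Physical stability scored by ThT fluorescence (444 nm excitation, 485 nm emission) tracked every 20 min during 37 °C incubation with 960 rpm shaking, ThT at 1 μM final. Values are replicate means with SD at chosen times; HPLC against pramlintide standard gives initial and post-assay soluble concentrations.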

[2] = target: T1, rat amylin receptor (rat calcitonin receptor + rat RAMP 3) (Rattus norvegicus, UniProt P32214+Q9JJ73); test: ASSAY (VI) binding to the rat amylin receptor; settings: for IC50: binding to rat amylin receptor, read-out: rAmylin-R bind IC50
T1 construct: expressed in transfected cells; host or cells: BHK tk'ts 13 (transient, FuGENE 6), membranes
T1 sequence (P32214 25-479 isoform P32214-2 limits assumed): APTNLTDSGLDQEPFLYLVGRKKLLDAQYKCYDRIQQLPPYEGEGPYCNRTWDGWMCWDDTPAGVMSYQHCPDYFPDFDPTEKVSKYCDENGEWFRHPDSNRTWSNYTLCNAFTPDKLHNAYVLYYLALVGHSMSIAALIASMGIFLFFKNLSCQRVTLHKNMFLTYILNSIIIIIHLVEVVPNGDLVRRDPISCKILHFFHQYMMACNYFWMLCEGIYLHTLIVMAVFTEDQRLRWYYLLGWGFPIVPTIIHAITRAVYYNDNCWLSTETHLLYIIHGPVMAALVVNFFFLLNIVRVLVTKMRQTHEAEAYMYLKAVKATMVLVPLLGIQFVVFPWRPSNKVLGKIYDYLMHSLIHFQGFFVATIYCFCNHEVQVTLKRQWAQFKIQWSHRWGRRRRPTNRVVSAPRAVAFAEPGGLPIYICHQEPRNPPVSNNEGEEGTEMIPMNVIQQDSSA
T1 sequence (Q9JJ73 23-147 partner): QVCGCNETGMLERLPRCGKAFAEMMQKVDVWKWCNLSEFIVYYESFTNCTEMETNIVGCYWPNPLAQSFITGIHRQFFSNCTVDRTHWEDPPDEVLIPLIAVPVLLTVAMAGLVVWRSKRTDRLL
Procedure, shortened: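 The cell-membrane assay assessed binding at the rat amylin receptor. BHK tk′ts 13 cells were transfected transiently with rat calcitonin receptor, with FuGENE® 6 (Roche) as the transfection reagent, used per the manufacturer's recommendations. Approximately 48 hours after transfection the cells were harvested, and membranes were prepared for measuring binding.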

[3] = Table 7, rat binding selectivity, rCTR IC50 / rAmylin-R IC50
[4] = Table 7a (preferred compounds), rat binding selectivity, rCTR IC50 / rAmylin-R IC50
[5] = ratio of rCTR bind IC50 to rAmylin-R bind IC50

SMILES | ThT pH 4.0 lag time (h) [1] | IC50 ([2]; Table 7) | Ratio rCT/rAmylin binding [2, 3] | Ratio rCT/rAmylin binding [2, 4] | Ratio rCT/rAmylin binding [2, 5]
CC[C@H](C)[C@H](NC(=O)[C@H](C)NC(=O)CNC(=O)[C@H](Cc1ccccc1)NC(=O)[C@H](CC(N)=O)NC(=O)[C@@H]1CCCN1C(=O)[C@H](CO)NC(=O)[C@H](CO)NC(=O)[C@H](Cc1c[nH]cn1)NC(=O)[C@H](CCCNC(=N)N)NC(=O)[C@H](CC(C)C)NC(=O)[C@H](Cc1ccccc1)NC(=O)[C@H](CC(N)=O)NC(=O)[C@H](C)NC(=O)[C@H](CC(C)C)NC(=O)[C@H](CCCNC(=N)N)NC(=O)[C@H](CCC(N)=O)NC(=O)[C@@H](NC(=O)[C@H](C)NC(=O)[C@@H]1CSSC[C@H](NC(=O)[C@@H](N)CCCCNC(=O)COCCOCCNC(=O)CC[C@H](NC(=O)CCCCCCCCCCCCCCCCCCC(=O)O)C(=O)O)C(=O)N[C@@H](CC(N)=O)C(=O)N[C@@H]([C@@H](C)O)C(=O)N[C@@H](C)C(=O)N[C@@H]([C@@H](C)O)C(=O)N1)[C@@H](C)O)C(=O)N1CCC[C@H]1C(=O)N[C@@H](CO)C(=O)N1CCC[C@H]1C(=O)N[C@H](C(=O)N1CCC[C@H]1C(=O)N[C@H](C(=O)NCC(=O)N[C@@H](CO)C(=O)N[C@@H](CC(N)=O)C(=O)N[C@H](C(=O)N[C@@H](Cc1ccc(O)cc1)C(N)=O)[C@@H](C)O)C(C)C)[C@@H](C)O [Example 54] (H-K([AEEA-γGlu-C20 diacid])CNTATCATQRLANFLRHSSPNFGAIPSPTPVGSNTY-NH2; disulfide 2-7; N-terminus assumed) | 15 h | 0.049 nM | 179.4 | 179.4 | 179.4
CC[C@H](C)[C@H](NC(=O)[C@H](C)NC(=O)CNC(=O)[C@H](Cc1ccccc1)NC(=O)[C@H](CC(N)=O)NC(=O)[C@@H]1CCCN1C(=O)[C@H](CO)NC(=O)[C@H](CO)NC(=O)[C@H](Cc1c[nH]cn1)NC(=O)[C@H](CCCNC(=N)N)NC(=O)[C@H](CC(C)C)NC(=O)[C@H](Cc1ccccc1)NC(=O)[C@H](CC(N)=O)NC(=O)[C@H](C)NC(=O)[C@H](CC(C)C)NC(=O)[C@H](CCCNC(=N)N)NC(=O)[C@H](CCC(N)=O)NC(=O)[C@@H](NC(=O)[C@H](C)NC(=O)[C@@H]1CSSC[C@H](NC(=O)[C@@H](N)CCCCNC(=O)COCCOCCNC(=O)COCCOCCNC(=O)CC[C@H](NC(=O)CCCCCCCCCCCCCCCCCCC(=O)O)C(=O)O)C(=O)N[C@@H](CC(N)=O)C(=O)N[C@@H]([C@@H](C)O)C(=O)N[C@@H](C)C(=O)N[C@@H]([C@@H](C)O)C(=O)N1)[C@@H](C)O)C(=O)N1CCC[C@H]1C(=O)N[C@@H](CO)C(=O)N[C@@H](CO)C(=O)N[C@H](C(=O)N[C@@H](CC(N)=O)C(=O)N[C@H](C(=O)NCC(=O)N[C@@H](Cc1c[nH]cn1)C(=O)N[C@@H](CC(N)=O)C(=O)N[C@H](C(=O)N[C@@H](Cc1ccc(O)cc1)C(N)=O)[C@@H](C)O)C(C)C)[C@@H](C)O [Example 97] | 30 h | 2.24 nM | 71.1 | 71.1 | 71.1
CC[C@H](C)[C@H](NC(=O)[C@H](C)NC(=O)CNC(=O)[C@H](Cc1ccccc1)NC(=O)[C@H](CC(N)=O)NC(=O)[C@@H]1CCCN1C(=O)[C@H](CO)NC(=O)[C@H](CO)NC(=O)[C@H](Cc1c[nH]cn1)NC(=O)[C@H](CCCNC(=N)N)NC(=O)[C@H](CC(C)C)NC(=O)[C@H](Cc1ccccc1)NC(=O)[C@H](CCCNC(=N)N)NC(=O)[C@H](C)NC(=O)[C@H](CC(C)C)NC(=O)[C@H](CCCNC(=N)N)NC(=O)[C@H](CCC(N)=O)NC(=O)[C@@H](NC(=O)[C@H](C)NC(=O)[C@@H]1CSSC[C@H](NC(=O)[C@@H](N)CCCCNC(=O)CC[C@H](NC(=O)CCCCCCCCCCCCCCCCCCC(=O)O)C(=O)O)C(=O)N[C@@H](CC(N)=O)C(=O)N[C@@H]([C@@H](C)O)C(=O)N[C@@H](C)C(=O)N[C@@H]([C@@H](C)O)C(=O)N1)[C@@H](C)O)C(=O)N1CCC[C@H]1C(=O)N[C@@H](CO)C(=O)N[C@@H](CO)C(=O)N[C@H](C(=O)N1CCC[C@H]1C(=O)N[C@H](C(=O)NCC(=O)N[C@@H](CO)C(=O)N[C@@H](CC(N)=O)C(=O)N[C@H](C(=O)N[C@@H](Cc1ccc(O)cc1)C(N)=O)[C@@H](C)O)C(C)C)[C@@H](C)O [Example 63] (H-K([γGlu-C20 diacid])CNTATCATQRLARFLRHSSPNFGAIPSSTPVGSNTY-NH2; disulfide 2-7 (inferred); N-terminus assumed) | 45 h | 3.48 nM | 35.6 | 35.6 | 35.6
CC[C@H](C)[C@H](NC(=O)[C@H](C)NC(=O)CNC(=O)[C@H](Cc1ccccc1)NC(=O)[C@H](CC(N)=O)NC(=O)[C@@H]1CCCN1C(=O)[C@H](CO)NC(=O)[C@H](CO)NC(=O)[C@H](Cc1c[nH]cn1)NC(=O)[C@H](CCCNC(=N)N)NC(=O)[C@H](CC(C)C)NC(=O)[C@H](Cc1ccccc1)NC(=O)[C@H](CC(N)=O)NC(=O)[C@H](C)NC(=O)[C@H](CC(C)C)NC(=O)[C@H](CCCNC(=N)N)NC(=O)[C@H](CCC(N)=O)NC(=O)[C@@H](NC(=O)[C@H](C)NC(=O)[C@@H]1CSSC[C@H](NC(=O)[C@@H](N)CCCCNC(=O)CC[C@H](NC(=O)CCCCCCCCCCCCCCCCCCC(=O)O)C(=O)O)C(=O)N[C@@H](CC(N)=O)C(=O)N[C@@H]([C@@H](C)O)C(=O)N[C@@H](C)C(=O)N[C@@H]([C@@H](C)O)C(=O)N1)[C@@H](C)O)C(=O)N1CCC[C@H]1C(=O)N[C@@H](CO)C(=O)N[C@@H](CO)C(=O)N[C@H](C(=O)N[C@@H](CC(N)=O)C(=O)N[C@H](C(=O)NCC(=O)N[C@@H](CCCNC(=N)N)C(=O)N[C@@H](CC(N)=O)C(=O)N[C@H](C(=O)N[C@@H](Cc1ccc(O)cc1)C(N)=O)[C@@H](C)O)C(C)C)[C@@H](C)O [Example 79] (H-K([γGlu-C20 diacid])CNTATCATQRLANFLRHSSPNFGAIPSSTNVGRNTY-NH2; disulfide 2-7 (inferred); N-terminus assumed) | 21 h | 1.65 nM | 21.5 | 21.5 | 21.5
CC[C@H](C)[C@H](NC(=O)[C@H](C)NC(=O)CNC(=O)[C@H](Cc1ccccc1)NC(=O)[C@H](CC(N)=O)NC(=O)[C@@H]1CCCN1C(=O)[C@H](CO)NC(=O)[C@H](CO)NC(=O)[C@H](Cc1c[nH]cn1)NC(=O)[C@H](CCCNC(=N)N)NC(=O)[C@H](CC(C)C)NC(=O)[C@H](Cc1ccccc1)NC(=O)[C@H](CCC(=O)O)NC(=O)[C@H](C)NC(=O)[C@H](CC(C)C)NC(=O)[C@H](CCCNC(=N)N)NC(=O)[C@H](CCC(N)=O)NC(=O)[C@@H](NC(=O)[C@H](C)NC(=O)[C@@H]1CSSC[C@H](NC(=O)[C@H](CCCCN)NC(=O)CC[C@H](NC(=O)CCCCCCCCCCCCCCCCCCC(=O)O)C(=O)O)C(=O)N[C@@H](CC(N)=O)C(=O)N[C@@H]([C@@H](C)O)C(=O)N[C@@H](C)C(=O)N[C@@H]([C@@H](C)O)C(=O)N1)[C@@H](C)O)C(=O)N1CCC[C@H]1C(=O)N[C@@H](CO)C(=O)N[C@@H](CO)C(=O)N[C@H](C(=O)N[C@@H](CC(N)=O)C(=O)N[C@H](C(=O)NCC(=O)N[C@@H](CCCCN)C(=O)N[C@@H](CC(N)=O)C(=O)N[C@H](C(=O)N[C@@H](Cc1ccc(O)cc1)C(N)=O)[C@@H](C)O)C(C)C)[C@@H](C)O [Example 36] ({C20 diacid-γGlu}-KCNTATCATQRLAEFLRHSSPNFGAIPSSTNVGKNTY-NH2; disulfide 2-7 (inferred)) | 45 h | 1.86 nM | 32.4 | 32.4 | 32.4
